# Read-outs that look alike come from different tables or passages of the source.
# Tests used:
# human keratinocyte cells = type: cell-based; conditions: 24 h incubation, total protein quantity
# [1] = Peroxide radicals capturing capacity; type: biochemical; conditions: pure polyphenols isolated from wood material
# Text: Tables 4C and 4D further represent the free radicals capturing capacity of certain pure polyphenols and unpurified polyphenol extracts with respect to peroxide radicals.
# [2] = Antioxidative capacity: inhibition of the peroxidation of lipids; type: biochemical; conditions: pure polyphenols isolated from wood materials
# Text: In Tables 4A, 4B, 4C and 4D, there are represented antioxidative and free radical capturing effects of pure polyphenolic compounds and of unpurified polyphenolic compounds containing raw extracts obtained from wood bark and stem knotwood.
# [3] = pure polyphenols; footnote 1: Willför et al., J. Agric. Food. Chem., 51, 7600-7606 (2003); cited from earlier work
# [4] = pure polyphenols; footnote 1: Willför et al., J. Agric. Food. Chem, 51, 26 (2003); cited from earlier work
Compound,EC20 ppm 24 h (limit value by which 20% of the cultivated cells died) (human keratinocyte cells),capturing capacity mmol/g (peroxide radicals) [1],"EC50 μg/L, concentration which inhibits 50% of the peroxidation of the lipids [2]",capturing capacity mmol/g (peroxide radicals) [3],"EC50 μg/L, concentration which inhibits 50% of the peroxidation of the lipids [4]"
"Cc1cc(C(C)(C)C)c(O)c(C(C)(C)C)c1 [BTH, butylated hydroxytoluene]",5.50 ppm,,,,
COc1cc([C@H]2c3cc(O)c(OC)cc3C[C@@H](CO)[C@@H]2CO)ccc1O [Cyclolariciresinol],,12 mmol/g,17 µg/L,,
O=C1c2c(O)cc(O)cc2O[C@H](c2ccc(O)cc2)[C@H]1O [Dihydrokaempferol],,0.78 mmol/g,488 µg/L,,
COc1cc(C[C@H]2C(=O)OC[C@@H]2[C@H](O)c2ccc(O)c(OC)c2)ccc1O [Hydroxymatairesinol],,,,5.6 mmol/g,58 µg/L
COc1cc(C[C@H]2CO[C@H](c3ccc(O)c(OC)c3)[C@H]2CO)ccc1O [Lariciresinol],,,,2.7 mmol/g,126 µg/L
COc1cc(C[C@H]2COC(=O)[C@@H]2Cc2ccc(O)c(OC)c2)ccc1O [Matairesinol],,,,2.9 mmol/g,99 µg/L
Oc1ccc([C@H]2Oc3c(ccc(O)c3O)[C@@H](O)[C@H]2O)cc1O [Melacasidine],,20 mmol/g,36 µg/L,,
COc1cc(C[C@H]2COC(=O)[C@]2(O)Cc2ccc(O)c(OC)c2)ccc1O [Nortrachelogenin],,,,5.9 mmol/g,53 µg/L
O=C1C[C@@H](c2ccccc2)Oc2cc(O)cc(O)c21 [Pinosembrin],,0.49 mmol/g,1135 µg/L,,
Oc1cc(O)cc(/C=C/c2ccccc2)c1 [Pinosylvin],,0.78 mmol/g,50 µg/L,,
COc1cc(C[C@@H](CO)[C@H](CO)Cc2ccc(O)c(OC)c2)ccc1O [Secoisolariciresinol],,,,8.5 mmol/g,37 µg/L
O=C1c2c(O)cc(O)cc2O[C@H](c2ccc(O)c(O)c2)[C@H]1O [Taxifolin],,,,16 mmol/g,46 µg/L
Oc1ccc([C@H]2Oc3c(ccc(O)c3O)[C@@H](O)[C@H]2O)cc1 [Teracasidine],,7.8 mmol/g,50 µg/L,,
Pinoresinol,,7.8 mmol/g,20 µg/L,,

# — patent US8496974B2, “Method for preparing a composition comprising a compound mixture and a carrier agent” (Oy Granula AB Ltd, priority 2008, dated 2013)
